According to patent US20030153590A1, “Method of treating alcoholism or alcohol abuse” (OY CONTRAL PHARMA LTD, priority 2001, published 2003):

How the values were obtained:
[1] = test system: subjects with impaired control of alcohol drinking; test: Randomized, double-blind, placebo-controlled dose-response study of nalmefene once daily for 16 weeks; type: in vivo, human; settings: for Spouse or significant other estimate of frequency of intoxication: At least once a week (number of subjects) / Spouse or significant other estimate of frequency of intoxication: At least once a week (share of subjects) / Spouse or significant other estimate of frequency of intoxication: Every day (number of subjects) / Spouse or significant other estimate of frequency of intoxication: Every day (share of subjects) / Spouse or significant other estimate of frequency of intoxication: Never (number of subjects) / Spouse or significant other estimate of frequency of intoxication: Never (share of subjects) / Spouse or significant other estimate of frequency of intoxication: Once or twice (number of subjects) / Spouse or significant other estimate of frequency of intoxication: Once or twice (share of subjects) / Spouse or significant other estimate of frequency of intoxication: Several times a month (number of subjects) / Spouse or significant other estimate of frequency of intoxication: Several times a month (share of subjects): week 16
Method: A randomized, double-blind, placebo-controlled, multicenter, parallel group, dose-response study was conducted comparing placebo and two doses of nalmefene.
The subjects were randomly allocated to receive placebo, 10 mg of nalmefene or 40 mg of nalmefene once daily for 16 weeks. […] During their participation in the study, the subjects were allowed to receive general counseling, but not any psychotherapy or other specific alcoholism treatment, including pharmacotherapy. The study consisted of a screening period (screening and inclusion visits) not exceeding 2 weeks, during which the eligibility of the study subjects were evaluated, and follow-up visits at 1, 3, 6, 9, 12, and 16 weeks after the study medication was started.
The alcohol consumption was assessed with the Time Line Follow Back Method. The primary efficacy variable was the number of Heavy Drinking Days (HDDs) per month (defined as 28 days). A Heavy Drinking Day (HDD) was defined as a day when a male subject consumed 5 or more, or a female subject consumed 4 or more standard drinks. A standard drink contains approximately 12 g of ethanol. Secondary efficacy measures included other drinking variables (number of Drinking Days (DDs), ratio of HDDs to DDs, total consumption, and maximum and average intensity of drinking), Obsessive Compulsive Drinking Scale (OCDS), Alcohol Dependence Scale (ADS) and Drinkers Inventory of Consequences -scale (DrInC), clinical laboratory markers (ALAT, GGT, CDT, and MCV) and collateral reports.
The monthly drinking of the subjects during the 12 weeks prior to the study was determined first to get a baseline. The total alcohol consumption was 25% higher in the FAH+ subject than in the FAH− subject. The number of HDDs and the number of DDs were at a similar level in all subgroups.
The estimate on the subject's frequency of intoxication by subject's spouse or significant other was obtained again at the end of the study. Within the FAH+ subjects, there were more subjects in nalmefene 40 mg groups in categories “never” and “once or twice” than in other groups, and no subjects in the categories “at least once a week” or “every day”.

[2] = In vitro permeation study, MDCK cell membranes; type: in vitro ADME, canine; settings: dog
Method: (§1) MDCK cells were seeded onto the coated filters at a concentration of about 100,000 cells/cm^2. The culture medium was both in apical and basolateral chambers during the whole culture period, and the culture medium was changed every day. The cells were confluent within three days. […] The incubator environment was the same as described above.
(§2) MDCK cells were used for the permeation study on the 4th day when the TER value was about 250 Ω×cm^2. HBSS (Gibco, Paisley, Skotlanti) /10 mM HEPES was used a buffer solution. The permeation study was performed as described above. All the permeation studies were performed at 37° C. using a horizontal plate mixer (Heidolph Inkubator 1000 and Titramax 1000; Heidolph Electro GmbH & Co., Kelheim, Germany). After the studies, TER was metered. The TER data were not changed during the permeability studies.
(§3) The apparent permeability coefficients were calculated as:
(§4) Papp=J/(C×S), (Equation 1)
(§5) Cs is the water solubility of nalmefene.

MDCK cell membranes = test: In vitro permeation study, MDCK cell membranes; type: in vitro ADME, canine
Method: as §1, §2, §3, §4, §5

[3] = cited from earlier work
[4] = In vitro permeation study, HCE cell membranes; settings: human
HCE cell membranes = test: In vitro permeation study, HCE cell membranes; settings: HCE, Papp × water solubility

C=C1CC[C@@]2(O)[C@H]3Cc4ccc(O)c5c4[C@@]2(CCN3CC2CC2)[C@H]1O5 [nalmefene]
number of HDDs ([1]; FAH+ subjects, 10 mg once daily): smaller reduction in the early phase of the treatment
total alcohol consumption and number of HDDs ([1]; FAH+ subjects, 10 mg, first month of treatment): positive tendency
Spouse or significant other estimate of frequency of intoxication: At least once a week (number of subjects) ([1]; FAH+ subjects, 10 mg): 4
Spouse or significant other estimate of frequency of intoxication: At least once a week (share of subjects) ([1]; FAH+ subjects, 10 mg): 21%
Spouse or significant other estimate of frequency of intoxication: Every day (number of subjects) ([1]; FAH+ subjects, 10 mg): 0
Spouse or significant other estimate of frequency of intoxication: Every day (share of subjects) ([1]; FAH+ subjects, 10 mg): 0%
Spouse or significant other estimate of frequency of intoxication: Never (number of subjects) ([1]; FAH+ subjects, 10 mg): 1
Spouse or significant other estimate of frequency of intoxication: Never (share of subjects) ([1]; FAH+ subjects, 10 mg): 5%
Spouse or significant other estimate of frequency of intoxication: Once or twice (number of subjects) ([1]; FAH+ subjects, 10 mg): 6
Spouse or significant other estimate of frequency of intoxication: Once or twice (share of subjects) ([1]; FAH+ subjects, 10 mg): 32%
Spouse or significant other estimate of frequency of intoxication: Several times a month (number of subjects) ([1]; FAH+ subjects, 10 mg): 8
Spouse or significant other estimate of frequency of intoxication: Several times a month (share of subjects) ([1]; FAH+ subjects, 10 mg): 42%
reduction of mean number of HDDs versus baseline ([1]; FAH+ subjects, 40 mg daily oral, 4th month of treatment): about 60%
ratio of the number of HDDs to DDs ([1]; FAH+ subjects, 40 mg daily, after treatment, baseline 85%): 43%
number of DDs ([1]; FAH+ subjects, 40 mg once daily): clear reduction
mean number of HDDs per month (28 days) ([1]; FAH+ subjects, 40 mg once daily oral, on treatment, baseline 14.5): 6.0
mean number of drinks (monthly total alcohol consumption) as % of baseline ([1]; FAH+ subjects, 40 mg, 4th month): about 40%
Spouse or significant other estimate of frequency of intoxication: At least once a week (number of subjects) ([1]; FAH+ subjects, 40 mg): 0
Spouse or significant other estimate of frequency of intoxication: At least once a week (share of subjects) ([1]; FAH+ subjects, 40 mg): 0%
Spouse or significant other estimate of frequency of intoxication: Every day (number of subjects) ([1]; FAH+ subjects, 40 mg): 0
Spouse or significant other estimate of frequency of intoxication: Every day (share of subjects) ([1]; FAH+ subjects, 40 mg): 0%
Spouse or significant other estimate of frequency of intoxication: Never (number of subjects) ([1]; FAH+ subjects, 40 mg): 3
Spouse or significant other estimate of frequency of intoxication: Never (share of subjects) ([1]; FAH+ subjects, 40 mg): 14%
Spouse or significant other estimate of frequency of intoxication: Once or twice (number of subjects) ([1]; FAH+ subjects, 40 mg): 9
Spouse or significant other estimate of frequency of intoxication: Once or twice (share of subjects) ([1]; FAH+ subjects, 40 mg): 41%
Spouse or significant other estimate of frequency of intoxication: Several times a month (number of subjects) ([1]; FAH+ subjects, 40 mg): 14
Spouse or significant other estimate of frequency of intoxication: Several times a month (share of subjects) ([1]; FAH+ subjects, 40 mg): 45%
mean number of heavy drinking days reduced by ([1]; FAH+ subjects, daily oral 40 mg, fourth month of treatment (as worded)): 40%
treatment effects on alcohol consumption versus placebo ([1]; FAH- subjects): not distinguishable from placebo
Spouse or significant other estimate of frequency of intoxication: At least once a week (number of subjects) ([1]; FAH- subjects, 10 mg): 1
Spouse or significant other estimate of frequency of intoxication: At least once a week (share of subjects) ([1]; FAH- subjects, 10 mg): 9%
Spouse or significant other estimate of frequency of intoxication: Every day (number of subjects) ([1]; FAH- subjects, 10 mg): 1
Spouse or significant other estimate of frequency of intoxication: Every day (share of subjects) ([1]; FAH- subjects, 10 mg): 9%
Spouse or significant other estimate of frequency of intoxication: Never (number of subjects) ([1]; FAH- subjects, 10 mg): 1
Spouse or significant other estimate of frequency of intoxication: Never (share of subjects) ([1]; FAH- subjects, 10 mg): 9%
Spouse or significant other estimate of frequency of intoxication: Once or twice (number of subjects) ([1]; FAH- subjects, 10 mg): 4
Spouse or significant other estimate of frequency of intoxication: Once or twice (share of subjects) ([1]; FAH- subjects, 10 mg): 36%
Spouse or significant other estimate of frequency of intoxication: Several times a month (number of subjects) ([1]; FAH- subjects, 10 mg): 4
Spouse or significant other estimate of frequency of intoxication: Several times a month (share of subjects) ([1]; FAH- subjects, 10 mg): 36%
Spouse or significant other estimate of frequency of intoxication: At least once a week (number of subjects) ([1]; FAH- subjects, 40 mg): 1
Spouse or significant other estimate of frequency of intoxication: At least once a week (share of subjects) ([1]; FAH- subjects, 40 mg): 8%
Spouse or significant other estimate of frequency of intoxication: Every day (number of subjects) ([1]; FAH- subjects, 40 mg): 1
Spouse or significant other estimate of frequency of intoxication: Every day (share of subjects) ([1]; FAH- subjects, 40 mg): 8%
Spouse or significant other estimate of frequency of intoxication: Never (number of subjects) ([1]; FAH- subjects, 40 mg): 2
Spouse or significant other estimate of frequency of intoxication: Never (share of subjects) ([1]; FAH- subjects, 40 mg): 15%
Spouse or significant other estimate of frequency of intoxication: Once or twice (number of subjects) ([1]; FAH- subjects, 40 mg): 3
Spouse or significant other estimate of frequency of intoxication: Once or twice (share of subjects) ([1]; FAH- subjects, 40 mg): 23%
Spouse or significant other estimate of frequency of intoxication: Several times a month (number of subjects) ([1]; FAH- subjects, 40 mg): 5
Spouse or significant other estimate of frequency of intoxication: Several times a month (share of subjects) ([1]; FAH- subjects, 40 mg): 38%
number of HDDs ([1]; FAH- subjects, nalmefene 10 mg or 40 mg once daily): no clear treatment effects
mean number of drinks (monthly total alcohol consumption) ([1]; FAH- subjects, throughout the study): remained almost unchanged
Papp A→B at 180 min, 500 μM ([2]; pH 6.5, n = 4, read-out: Permeability factor (Papp ± SD)): 11.4 ± 0.59 ×10⁻⁶ cm/s
Papp A→B at 180 min, 500 μM ([2]; pH 7.0, n = 4, read-out: Permeability factor (Papp ± SD)): 18.27 ± 0.16 ×10⁻⁶ cm/s
Papp A→B at 180 min, 500 μM ([2]; pH 7.5, n = 4, read-out: Permeability factor (Papp ± SD)): 22.7 ± 1.08 ×10⁻⁶ cm/s
Papp A→B at 180 min, 500 μM ([2]; pH 8.0, n = 4, read-out: Permeability factor (Papp ± SD)): 23.9 ± 2.49 ×10⁻⁶ cm/s
Maximal administration rate Jmax × 10^−6 ± SD (MDCK cell membranes; pH 6.5, n = 4, Papp × water solubility): 1273 ± 66 × 10^−6 mg/(cm^2 s)
Maximal administration rate Jmax × 10^−6 ± SD (MDCK cell membranes; pH 7.0, n = 4, Papp × water solubility): 1618 ± 14 × 10^−6 mg/(cm^2 s)
Maximal administration rate Jmax × 10^−6 ± SD (MDCK cell membranes; pH 7.5, n = 4, Papp × water solubility): 723 ± 34 × 10^−6 mg/(cm^2 s)
Maximal administration rate Jmax × 10^−6 ± SD (MDCK cell membranes; pH 8.0, n = 4, Papp × water solubility): 10.6 ± 1.1 × 10^−6 mg/(cm^2 s)
pKa [3]: 7.63
Papp A→B at 180 min, 500 μM ([4]; pH 6.5): 7.86 ± 0.29 ×10⁻⁶ cm/s
Papp A→B at 180 min, 500 μM ([4]; pH 7): 12.1 ± 0.79 ×10⁻⁶ cm/s
Papp A→B at 180 min, 500 μM ([4]; pH 7.5): 13.3 ± 0.61 ×10⁻⁶ cm/s
Papp A→B at 180 min, 500 μM ([4]; pH 8): 13.6 ± 1.64 ×10⁻⁶ cm/s
Maximal administration rate Jmax × 10^−6 ± SD (HCE cell membranes; pH 6.5, n = 4): 879 ± 32 × 10^−6 mg/(cm^2 s)
Maximal administration rate Jmax × 10^−6 ± SD (HCE cell membranes; pH 7.0, n = 4): 1072 ± 70 × 10^−6 mg/(cm^2 s)
Maximal administration rate Jmax × 10^−6 ± SD (HCE cell membranes; pH 7.5, n = 4): 423 ± 19 × 10^−6 mg/(cm^2 s)
Maximal administration rate Jmax × 10^−6 ± SD (HCE cell membranes; pH 8.0, n = 4): 6.0 ± 0.7 × 10^−6 mg/(cm^2 s)
